The source made the active and inactive calls.
Legend:
[1] = ADAM10 inhibitors, peptide cleavage, dose response, biochemical, QFRET (AID 743254);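 note: ADAM10 enzyme with the DM2 quenched FRET peptide as substrate; EDANS fluorescence gain as the protease cuts the substrate; inhibitor potency against ADAM10 proteolytic activity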
[2] = target: Protein Wnt-3a (Mus musculus, UniProt P27467); assay: Wnt3a-driven reporter signaling inhibition, dose response, selectivity assay for Gli-SUFU antagonist project, Wnt-LIGHT cells, luminescence (AID 651570); type: functional; details: read-out: IC50_Mean;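 note: Wnt-LIGHT reporter cells stimulated with conditioned medium from Wnt3a-producing cells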
[3] = cells; type: functional, cell-based; details: HEK-CNG
[4] = target: Galanin receptor type 3 (Homo sapiens, UniProt O60755); assay: Fluorescence-based cell-based primary high throughput dose response assay to identify antagonists of the Galanin Receptor 3 (GalR3).; type: functional
[5] = tested on: INS1; assay: beta cell apoptosis inhibitors, cytokine rescue, dose response, luminescence, retest (AID 449756); type: functional, cell-based; details: Rattus norvegicus;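 note: cell death triggered by IL-1 beta plus TNF-alpha plus IFN-gamma mixture; protective hits raise ATP signal compared with cytokine alone wells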
[6] = target: T1, COUP transcription factor 2 (Homo sapiens, UniProt P24468); assay: Luminescence-based cell-based high throughput dose response assay to identify inhibitors of COUP-TFII (NR2F2).; type: functional;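 note: HEK293 cells transiently cotransfected with COUP-TFII expression vector and reporter; luciferase reporter luminescence driven by COUP-TFII from the pX2-168 reporter plasmid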
T1 sequence (P24468 whole entry): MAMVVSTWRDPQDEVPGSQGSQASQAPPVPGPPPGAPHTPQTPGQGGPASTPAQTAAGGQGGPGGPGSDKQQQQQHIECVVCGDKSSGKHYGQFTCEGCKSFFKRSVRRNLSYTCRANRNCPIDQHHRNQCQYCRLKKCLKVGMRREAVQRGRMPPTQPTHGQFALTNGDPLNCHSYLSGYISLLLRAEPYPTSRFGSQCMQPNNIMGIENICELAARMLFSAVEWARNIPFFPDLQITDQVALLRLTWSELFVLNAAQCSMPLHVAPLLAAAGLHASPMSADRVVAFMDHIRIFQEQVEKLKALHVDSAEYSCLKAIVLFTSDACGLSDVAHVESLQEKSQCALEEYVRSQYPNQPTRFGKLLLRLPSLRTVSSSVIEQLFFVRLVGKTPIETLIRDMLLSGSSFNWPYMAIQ

[7] = A375 melanoma cell viability loss, dose response, counter-screen for MITF inhibitor project, CellTiter-Glo luminescence, dry powder, set 4 (AID 624364); type: functional, cell-based; details: A-375;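 note: A375 melanoma cells are MITF independent so this is a counter screen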
[8] = target: Paired box protein Pax-8 (Homo sapiens, UniProt Q06710); assay: inhibitors of PAX8-driven TPO luciferase reporter, dose response, RMG-I cells, cherry-pick (AID 687027); type: functional, cell-based;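 note: luciferase reporter driven by Pax8 target thyroperoxidase promoter measured by SteadyGlo luminescence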
[9] = cytotoxicity in OVCAR8 ovarian cancer cells, dose response, PAX8 project, cell-based, plate reader, dry powder samples (AID 743197); type: functional; details: OVCAR-8
[10] = NIH:OVCAR-3 ovarian cancer cell cytotoxicity, dose response, PAX8 inhibitor project, plate reader, dry powder samples (AID 743044); type: functional, cell-based
[11] = IGROV1 ovarian cancer cell cytotoxicity, dose response, PAX8 inhibitor project, plate reader, dry powder samples (AID 743043); type: functional, cell-based; details: IGROV-1
[12] = target: T2, Disintegrin and metalloproteinase domain-containing protein 17 (Homo sapiens, UniProt P78536); assay: ADAM17 protease inhibitors, dose response, counter-screen for ADAM10 exosite inhibitor project, biochemical, quenched FRET substrate (AID 743253)
[13] = non-specific cell cytotoxicity, dose response, cytotoxicity control for PAX8 inhibitor project, plate reader, dry powder samples (AID 743021); type: functional, cell-based
[14] = HEK293T cytotoxicity, dose response, cytotoxicity control for miR-122 modulator project, cell-based, inhibitor set, cherry-pick, set 2 (AID 720697); type: functional
[15] = target: T3, Heat shock factor protein 1 (Mus musculus, UniProt P38532); assay: HSF1 potentiators in luciferase reporter cells, confirmation, cell-based, NIH3T3, luminescence, dose retest (AID 435004); type: functional;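 note: stress induced by proteasome inhibitor MG132 added 30 min after compound; luciferase reporter driven by HSF1 response element in NIH3T3 cells; actives raise luminescence as potentiators of the MG132 stress response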
T3 sequence (P38532 whole entry): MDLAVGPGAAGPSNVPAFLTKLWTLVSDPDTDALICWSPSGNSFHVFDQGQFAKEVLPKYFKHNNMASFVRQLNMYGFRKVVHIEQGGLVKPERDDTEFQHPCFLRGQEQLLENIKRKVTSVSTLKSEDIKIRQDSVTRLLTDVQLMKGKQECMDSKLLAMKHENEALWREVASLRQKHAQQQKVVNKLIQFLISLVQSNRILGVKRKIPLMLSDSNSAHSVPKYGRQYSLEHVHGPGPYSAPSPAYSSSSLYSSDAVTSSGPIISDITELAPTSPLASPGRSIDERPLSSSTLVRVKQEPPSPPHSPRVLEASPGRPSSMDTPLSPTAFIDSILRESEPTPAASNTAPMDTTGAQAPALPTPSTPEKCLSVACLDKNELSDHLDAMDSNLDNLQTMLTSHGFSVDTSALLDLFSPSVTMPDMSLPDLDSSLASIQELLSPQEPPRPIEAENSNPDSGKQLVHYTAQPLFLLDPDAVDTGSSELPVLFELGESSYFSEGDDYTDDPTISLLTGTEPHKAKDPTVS

[16] = target: T2, Disintegrin and metalloproteinase domain-containing protein 17; assay: exosite inhibitors of ADAM17, dose response, biochemical (AID 743260)
[17] = THP-1 cell cytotoxicity, dose response, cytotoxicity control for non-replicating M. tuberculosis project (AID 489025); type: functional
[18] = cells; type: functional
[19] = target: Fructose-bisphosphate aldolase (Mycobacterium tuberculosis, UniProt P9WQA3); assay: Fluorescence-based biochemical high throughput dose response assay for inhibitors of the fructose-bisphosphate aldolase (FBA) of M. tuberculosis.; type: functional
Fructose-bisphosphate aldolase, sequence (P9WQA3 whole entry): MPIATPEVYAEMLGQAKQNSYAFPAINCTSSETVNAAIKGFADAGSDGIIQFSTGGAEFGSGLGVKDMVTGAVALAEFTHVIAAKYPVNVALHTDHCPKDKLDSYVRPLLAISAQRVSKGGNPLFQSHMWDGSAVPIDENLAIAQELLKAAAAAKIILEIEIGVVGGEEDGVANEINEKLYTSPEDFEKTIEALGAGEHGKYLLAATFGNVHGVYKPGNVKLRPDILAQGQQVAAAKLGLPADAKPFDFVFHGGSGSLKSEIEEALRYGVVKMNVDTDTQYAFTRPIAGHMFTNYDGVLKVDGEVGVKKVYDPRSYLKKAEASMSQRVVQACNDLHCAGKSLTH

T2 sequence (P78536 whole entry, the tested form may be a part): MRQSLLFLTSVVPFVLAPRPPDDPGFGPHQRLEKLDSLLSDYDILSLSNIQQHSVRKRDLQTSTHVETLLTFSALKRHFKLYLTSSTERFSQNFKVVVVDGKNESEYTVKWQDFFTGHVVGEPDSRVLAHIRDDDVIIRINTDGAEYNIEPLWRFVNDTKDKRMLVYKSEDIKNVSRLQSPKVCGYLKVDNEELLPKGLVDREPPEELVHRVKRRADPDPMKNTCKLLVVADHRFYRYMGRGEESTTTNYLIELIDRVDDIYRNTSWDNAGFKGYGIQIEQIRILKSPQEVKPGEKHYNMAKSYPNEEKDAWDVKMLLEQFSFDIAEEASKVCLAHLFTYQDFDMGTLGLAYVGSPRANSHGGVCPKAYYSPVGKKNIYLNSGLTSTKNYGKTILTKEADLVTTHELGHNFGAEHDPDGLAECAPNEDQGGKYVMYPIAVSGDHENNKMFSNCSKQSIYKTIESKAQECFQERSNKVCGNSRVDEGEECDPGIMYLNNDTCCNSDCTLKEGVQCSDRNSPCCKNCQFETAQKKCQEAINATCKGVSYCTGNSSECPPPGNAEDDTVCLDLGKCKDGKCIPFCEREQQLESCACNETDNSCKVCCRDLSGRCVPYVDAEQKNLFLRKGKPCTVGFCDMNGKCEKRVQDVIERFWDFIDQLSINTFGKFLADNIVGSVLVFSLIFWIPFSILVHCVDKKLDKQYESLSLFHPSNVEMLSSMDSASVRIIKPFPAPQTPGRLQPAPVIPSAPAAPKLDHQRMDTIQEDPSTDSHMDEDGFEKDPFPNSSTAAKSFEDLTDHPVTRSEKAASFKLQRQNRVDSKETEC
Paired box protein Pax-8, sequence (Q06710 whole entry): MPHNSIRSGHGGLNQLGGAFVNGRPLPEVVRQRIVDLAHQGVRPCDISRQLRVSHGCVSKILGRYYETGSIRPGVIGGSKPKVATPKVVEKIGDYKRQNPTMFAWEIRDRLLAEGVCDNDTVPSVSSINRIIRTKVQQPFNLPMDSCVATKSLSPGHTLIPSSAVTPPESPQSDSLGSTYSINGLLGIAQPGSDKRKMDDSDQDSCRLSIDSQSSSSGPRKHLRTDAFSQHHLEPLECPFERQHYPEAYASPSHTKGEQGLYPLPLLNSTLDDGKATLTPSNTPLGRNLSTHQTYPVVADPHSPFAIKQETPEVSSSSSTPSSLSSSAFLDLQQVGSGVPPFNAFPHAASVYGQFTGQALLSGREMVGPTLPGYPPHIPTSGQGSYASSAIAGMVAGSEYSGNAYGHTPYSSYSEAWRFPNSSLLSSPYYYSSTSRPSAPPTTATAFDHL
Protein Wnt-3a, sequence (P27467 whole entry): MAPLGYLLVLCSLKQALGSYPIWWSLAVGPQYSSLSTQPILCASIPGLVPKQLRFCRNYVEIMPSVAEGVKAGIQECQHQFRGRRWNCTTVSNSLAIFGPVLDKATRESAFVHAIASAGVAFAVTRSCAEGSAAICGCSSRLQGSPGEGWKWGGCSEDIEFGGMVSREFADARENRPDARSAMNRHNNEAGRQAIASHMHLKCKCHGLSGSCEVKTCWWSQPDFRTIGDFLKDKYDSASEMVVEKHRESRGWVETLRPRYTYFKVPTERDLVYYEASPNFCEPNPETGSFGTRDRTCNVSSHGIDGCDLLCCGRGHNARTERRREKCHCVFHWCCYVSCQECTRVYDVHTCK
Galanin receptor type 3, sequence (O60755 whole entry): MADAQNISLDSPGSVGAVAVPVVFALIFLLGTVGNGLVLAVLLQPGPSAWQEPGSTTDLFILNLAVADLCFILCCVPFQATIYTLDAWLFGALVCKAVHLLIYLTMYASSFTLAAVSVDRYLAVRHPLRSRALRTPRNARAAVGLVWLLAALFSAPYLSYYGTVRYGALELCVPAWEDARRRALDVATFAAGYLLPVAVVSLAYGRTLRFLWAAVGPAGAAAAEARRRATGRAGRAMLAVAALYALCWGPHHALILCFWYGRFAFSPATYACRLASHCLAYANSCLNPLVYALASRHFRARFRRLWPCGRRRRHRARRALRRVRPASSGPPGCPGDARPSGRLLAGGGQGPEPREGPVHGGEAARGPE

## CC(C)C[C@H](NC(=O)c1[nH]cnc1C(=O)Nc1ccc(CNC(=O)OC(C)(C)C)cc1)C(=O)OC(C)(C)C
[1]
  IC50: > 69.5 µM (inactive)

## NC(=O)c1c(-c2ccc(Cl)cc2Cl)csc1NC(=O)Cc1ccccc1
[2]
  IC50: 1.91 µM (active)
[3]
  EC50: > 29.9 µM (inactive)
[4]
  IC50: 513 nM (active)
[5]
  AC50: 2.86 µM (active)
[6]
  IC50: 5.15 µM (active)

## C=CCNC1=C(NS(=O)(=O)c2cccs2)C(=O)c2ccccc2C1=O
[7]
  AC50: > 70 µM (inactive)

## C[C@@H]1CCCCO[C@H](CN(C)Cc2ccc(Cl)c(Cl)c2)[C@@H](C)CN([C@@H](C)CO)C(=O)c2cc(NC(=O)Cc3ccccc3)ccc2O1
[8]
  AC50: 11.2 µM (active)
[9]
  AC50: > 70 µM (inactive)
[10]
  AC50: 33.4 µM (active)
[11]
  AC50: 50.5 µM (active)

## COc1ccc(NC(S)=Nc2cc(-c3ccccc3)[nH]n2)cc1Cl
[1]
  IC50: > 69.5 µM (inactive)
[12]
  IC50: > 69.5 µM (inactive)

## C[C@@H]1CN([C@@H](C)CO)C(=O)Cc2cc(NC(=O)Cc3ccccc3)ccc2O[C@H]1CN(C)Cc1ccc(-c2ccccc2)cc1
[8]
  AC50: 9.31 µM (active)
[13]
  AC50: 45.7 µM (active)

## CCC(=O)N1[C@H](CO)[C@@H](c2ccccc2)[C@@H]1CN(C(C)C)S(C)(=O)=O
[14]
  AC50: 510 nM (active)

## COc1cc(-c2nc(-c3ccccc3)c(-c3ccc4c(c3)-c3ccccc3S4(=O)=O)[nH]2)cc(OC)c1O
[15]
  EC50: 101 µM (active)
[16]
  IC50: > 69.5 µM (inactive)

## COc1ccc2nc(N=C(N)NC(=O)C(C)(C)C)nc(C)c2c1
[17]
  CC50: > 40 µM (active)
[18]
  IC50: 9.61 µM (active)
[19]
  IC50: 1.89 µM (active)

Source: ChEMBL document CHEMBL1201862, “PubChem BioAssay data set” (2004)
